Experimental data from patent publication US9062072B2, “Inhibitors of HIF and angiogenesis” (Emory University, priority 2010, dated 2015).
Where two headings read alike, the source gives them in different places.

Tested on: HIF-1-mediated transcription
Assay: HIF-1-mediated transcription under hypoxia, LN229-HRE-Lux luciferase reporter assay
Type: cell-based, human
Details: for IC50: LN229-HRE-Lux cells, hypoxia (1% O2)
Protocol: The synthesized analogues were evaluated for their potential to inhibit HIF-1-mediated transcription under hypoxia (1% O2) using a human glioma cell line LN229-HRE-Lux, which stably expresses a hypoxia-responsive luciferase reporter gene (Table 1-9). […] The compounds were tested in single (n=1) or multiple (n>1) independent experiments each carried out in quadruplicate.
LN229-HRE-luciferase human glioblastoma cells were used to perform the assay. […] 48-well plates were seeded with 3.10^4 cells per well and incubated under normoxic conditions for 24 h. Cells were then pre-treated with different concentrations of KCN-1 or its analogues for 1 h and then transferred to hypoxic conditions. After 24 h, media was aspirated, cells were lysed and reporter activity was measured in the lysate using Luciferase Assay System (Promega, Madison, Wis.) with 20/20^n Luminometer (Promega).

[1] = Homo sapiens, 24 h, Table 6, 24 h, read-out: IC50
[2] = Homo sapiens, 24 h, 24 h, read-out: IC50
[3] = Homo sapiens, 24 h, Table 7, 24 h, results from single runs, read-out: IC50
[4] = Homo sapiens, 24 h, Table 8, 24 h, results from single runs, read-out: IC50
[5] = Homo sapiens, 24 h, Table 9, results from single runs

| IC50 [3] | IC50 [4] | Structure (SMILES) | other results |
| --- | --- | --- | --- |
| 1.3 µM | – | COc1ccc(S(=O)(=O)N(Cc2ccc3c(n2)C=CC(C)(C)O3)c2ccccc2)cc1OC [Compound 26a, N-((2,2-dimethyl-2H-pyrano[3,2-b]pyridin-6-yl)methyl)-3,4-dimethoxy-N-phenylbenzenesulfonamide] | IC50 (Homo sapiens, unit inferred, read-out: IC50): 1.3 µM |
| 0.9 µM | – | CCCCN(Cc1ccc2c(n1)C=CC(C)(C)O2)S(=O)(=O)c1ccc(OC)c(OC)c1 [Compound 26b, N-Butyl-N-((2,2-dimethyl-2H-pyrano[3,2-b]pyridin-6-yl)methyl)-3,4-dimethoxybenzenesulfonamide] | – |
| 0.25 µM | – | COc1ccc(S(=O)(=O)N(Cc2ccc3c(n2)C=CC(C)(C)O3)C2CCC2)cc1OC [Compound 26i, N-Cyclobutyl-N-((2,2-dimethyl-2H-pyrano[3,2-b]pyridin-6-yl)methyl)-3,4-dimethoxybenzenesulfonamide] | IC50 [2]: 0.25 µM; fold higher potency than KCN-1 (IC50 compared with KCN-1, LN229-HRE-Lux reporter assay): ~3 fold; IC50 (24 h, read-out: IC50): 0.4 µM |
| 5.7 µM | – | COc1ccc(S(=O)(=O)N(Cc2ccc3c(n2)C=CC(C)(C)O3)c2ccc(F)cc2)cc1OC [Compound 26j, N-((2,2-dimethyl-2H-pyrano[3,2-b]pyridin-6-yl)methyl)-N-(4-fluorophenyl)-3,4-dimethoxybenzenesulfonamide] | – |
| – | 13.4 µM | CC(C)S(=O)(=O)N(Cc1ccc2c(n1)C=CC(C)(C)O2)c1ccccc1 [Compound 26l, N-((2,2-Dimethyl-2H-pyrano[3,2-b]pyridin-6-yl)methyl)-N-phenylpropane-2-sulfonamide] | – |
| – | > 25 µM | CC1(C)C=Cc2nc(CN(c3ccccc3)S(=O)(=O)C3CC3)ccc2O1 [Compound 26m, N-((2,2-Dimethyl-2H-pyrano[3,2-b]pyridin-6-yl)methyl)-N-phenylcyclopropanesulfonamide] | – |
| – | 5 µM | CCCCS(=O)(=O)N(Cc1ccc2c(n1)C=CC(C)(C)O2)c1ccccc1 [Compound 26n, N-((2,2-Dimethyl-2H-pyrano[3,2-b]pyridin-6-yl)methyl)-N-phenylbutane-1-sulfonamide] | – |
| – | 6.4 µM | CCCS(=O)(=O)N(Cc1ccc2c(n1)C=CC(C)(C)O2)c1ccccc1 [Compound 26o, N-((2,2-Dimethyl-2H-pyrano[3,2-b]pyridin-6-yl)methyl)-N-phenylpropane-1-sulfonamide] | – |
| – | 0.9 µM | CC(C)CS(=O)(=O)N(Cc1ccc2c(n1)C=CC(C)(C)O2)c1ccccc1 [Compound 26p, N-((2,2-Dimethyl-2H-pyrano[3,2-b]pyridin-6-yl)methyl)-2-methyl-N-phenylpropane-1-sulfonamide] | – |
| – | 3.4 µM | CC1(C)C=Cc2nc(CN(c3ccccc3)S(=O)(=O)c3ccc(-c4ccccc4)cc3)ccc2O1 [Compound 26q, N-((2,2-Dimethyl-2H-pyrano[3,2-b]pyridin-6-yl)methyl)-N-phenylbiphenyl-4-sulfonamide] | – |
| – | 0.9 µM | CC1(C)C=Cc2nc(CN(c3ccccc3)S(=O)(=O)c3cccc4cccnc34)ccc2O1 [Compound 26s, N-((2,2-Dimethyl-2H-pyrano[3,2-b]pyridin-6-yl)methyl)-N-phenylquinoline-8-sulfonamide] | IC50 [2]: 0.9 µM |
| – | 0.9 µM | CC1(C)C=Cc2nc(CN(c3ccccc3)S(=O)(=O)c3ccc4c(c3)OCCO4)ccc2O1 [Compound 26t, N-((2,2-dimethyl-2H-pyrano[3,2-b]pyridin-6-yl)methyl)-N-phenyl-2,3-dihydrobenzo[b][1,4]dioxine-6-sulfonamide] | – |

Further lines, the compound ahead of its results:

| Structure (SMILES) | IC50 [3] | IC50 [4] | other results |
| --- | --- | --- | --- |
| COc1ccc(S(=O)(=O)N(Cc2cnc3c(c2)C=CC(C)(C)O3)c2ccccc2)cc1OC [Compound 20a, N-((2,2-Dimethyl-2H-pyrano[2,3-b]pyridin-6-yl)methyl)-3,4-dimethoxy-N-phenylbenzenesulfonamide] | – | – | IC50 [1]: 2.5 µM; IC50 [2]: 2.5 µM |
| COc1ccc(S(=O)(=O)N(Cc2cnc3c(c2)C=CC(C)(C)O3)C2CCCCC2)cc1OC [Compound 20b, N-Cyclohexyl-N-((2,2-dimethyl-2H-pyrano[2,3-b]pyridin-6-yl)methyl)-3,4-dimethoxybenzenesulfonamide] | – | – | IC50 [1]: > 25 µM |
| COc1ccc(N(Cc2ccc3c(n2)C=CC(C)(C)O3)S(=O)(=O)c2ccc(OC)c(OC)c2)cc1OC [Compound 26c, N-(3,4-Dimethoxyphenyl)-N-((2,2-dimethyl-2H-pyrano[3,2-b]pyridin-6-yl)methyl)-3,4-dimethoxybenzenesulfonamide] | > 25 µM | – | – |
| COc1ccc(S(=O)(=O)N(Cc2ccc3c(n2)C=CC(C)(C)O3)C2CCCC2)cc1OC [Compound 26d, N-Cyclopentyl-N-((2,2-dimethyl-2H-pyrano[3,2-b]pyridin-6-yl)methyl)-3,4-dimethoxybenzenesulfonamide] | 0.6 µM | – | – |
| COc1ccc(S(=O)(=O)N(Cc2ccc3c(n2)C=CC(C)(C)O3)C2CCCCC2)cc1OC [Compound 26e, N-Cyclohexyl-N-((2,2-dimethyl-2H-pyrano[3,2-b]pyridin-6-yl)methyl)-3,4-dimethoxybenzenesulfonamide] | 0.8 µM | – | – |
| COc1ccc(S(=O)(=O)N(Cc2ccc3c(n2)C=CC(C)(C)O3)C2CCCCCC2)cc1OC [Compound 26g, N-Cycloheptyl-N-((2,2-dimethyl-2H-pyrano[3,2-b]pyridin-6-yl)methyl)-3,4-dimethoxybenzenesulfonamide] | 6.6 µM | – | – |
| COc1ccc(S(=O)(=O)N(Cc2ccc3c(n2)C=CC(C)(C)O3)C2CCCCCCC2)cc1OC [Compound 26h, N-Cyclooctyl-N-((2,2-dimethyl-2H-pyrano[3,2-b]pyridin-6-yl)methyl)-3,4-dimethoxybenzenesulfonamide] | 0.7 µM | – | – |
| CC1(C)C=Cc2nc(CN(c3ccccc3)S(=O)(=O)C3CCCCC3)ccc2O1 [Compound 26k, N-((2,2-Dimethyl-2H-pyrano[3,2-b]pyridin-6-yl)methyl)-N-phenylcyclohexanesulfonamide] | – | – | IC50 (Homo sapiens, 24 h, Table 8, results from single runs): 0.4 µM |
| COc1ccc(S(=O)(=O)N(Cc2cc3c(cn2)OC(C)(C)C=C3)c2ccccc2)cc1 [Compound 36a, N-((2,2-Dimethyl-2H-pyrano[2,3-c]pyridin-6-yl)methyl)-4-methoxy-N-phenylbenzenesulfonamide] | – | – | IC50 (Homo sapiens, 24 h, Table 9, 24 h, results from single runs, read-out: IC50): 1.4 µM; IC50 [2]: 1.42 µM |
| CC1(C)C=Cc2cc(CN(c3ccccc3)S(=O)(=O)c3ccc([N+](=O)[O-])cc3)ncc2O1 [Compound 36b, N-((2,2-Dimethyl-2H-pyrano[2,3-c]pyridin-6-yl)methyl)-4-nitro-N-phenylbenzenesulfonamide] | – | – | IC50 [5]: 1.8 µM; IC50 (Homo sapiens, 24 h): 1.8 µM |
| CC(C)c1ccc(S(=O)(=O)N(Cc2cc3c(cn2)OC(C)(C)C=C3)C2CCCCC2)cc1 [Compound 36c, N-Cyclohexyl-N-((2,2-dimethyl-2H-pyrano[2,3-c]pyridin-6-yl)methyl)-4-isopropylbenzenesulfonamide] | – | – | IC50 [5]: 1.1 µM; IC50 (Homo sapiens, 24 h): 1.08 µM |
| COc1ccc(S(=O)(=O)N(Cc2cc3c(cn2)OC(C)(C)C=C3)C2CCCCC2)cc1OC [Compound 36d, N-Cyclohexyl-N-((2,2-dimethyl-2H-pyrano[2,3-c]pyridin-6-yl)methyl)-3,4-dimethoxybenzenesulfonamide] | – | – | IC50 [5]: 5.8 µM |
| COc1ccc(S(=O)(=O)N(Cc2ccc3c(c2)C=CC(C)(C)O3)c2ccccc2)cc1OC [KCN-1, N-((2,2-dimethyl-2H-chromen-6-yl)methyl)-3,4-dimethoxy-N-phenylbenzenesulfonamide, reference compound] | – | – | IC50 (Homo sapiens, n=26, read-out: IC50): 0.7 ± 0.4 µM |
